In patent publication US20140342379A1, “Means and Methods for Assessing Gonadal Toxicity” (BASF SE, priority 2011, published 2014):
Marks after values point to notes of the source that are not given here.

Test system: male rats
Assay: 28-day repeated dose study, plasma metabolite profiling (GC-MS, LC-MS), male rats
Format: in vivo, rat
From the text: Drinking water was also offered ad libitum.

**Q.** How did the “18-Hydroxy-11-deoxycorticosterone, plasma, treatment ratio versus control” value (day 7) turn out when `Cc1ncc[nH]1` [2-Methylimidazole] was run?
**A.** 0.49*

**Q.** And the “Alanine, plasma, treatment ratio versus control” value (day 7)?
**A.** 0.76*

**Q.** What about the “Arachidonic acid (C20:cis[5,8,11,14]4), plasma, treatment ratio versus control” value (day 7) of the same compound?
**A.** 0.76*

**Q.** What about the “Coenzyme Q9, plasma, treatment ratio versus control” value (day 7) of the same compound?
**A.** 0.72*

**Q.** What about the “Creatinine, plasma, treatment ratio versus control” value (day 7) of the same compound?
**A.** 1.23*

**Q.** What about the “DAG (C18:1, C18:2), plasma, treatment ratio versus control” value (“DAG … treatment ratio versus control” below) (day 7) of the same compound?
**A.** 0.81

**Q.** And the “Fructose-6-phosphate, plasma, treatment ratio versus control” value (day 7)?
**A.** 0.76

**Q.** What about the “Galactose, lipid fraction, plasma, treatment ratio versus control” value (day 7) of the same compound?
**A.** 0.81*

**Q.** And the “Glucosamine, plasma, treatment ratio versus control” value (day 7)?
**A.** 1

**Q.** And the “Glucose, plasma, treatment ratio versus control” value (day 7)?
**A.** 0.86*

**Q.** And the “Glycerol, polar fraction, plasma, treatment ratio versus control” value (day 7)?
**A.** 0.75*

**Q.** And the “Heneicosanoic acid (C21:0), plasma, treatment ratio versus control” value (day 7)?
**A.** 0.92

**Q.** And the “Lactate, plasma, treatment ratio versus control” value (day 7)?
**A.** 0.68

**Q.** What about the “Linolenic acid (C18:cis[9,12,15]3), plasma, treatment ratio versus control” value (“Linolenic acid … treatment ratio versus control” below) (day 7) of the same compound?
**A.** 0.59*

**Q.** And the “Lysine, plasma, treatment ratio versus control” value (day 7)?
**A.** 0.81*

**Q.** What about the “Malate, plasma, treatment ratio versus control” value (day 7) of the same compound?
**A.** 0.65*

**Q.** What about the “Oleic acid (C18:cis[9]1), plasma, treatment ratio versus control” value (day 7) of the same compound?
**A.** 0.85*

**Q.** What about the “Palmitoleic acid (C16:cis[9]1), plasma, treatment ratio versus control” value (day 7) of the same compound?
**A.** 0.81

**Q.** What about the “Phenylalanine, plasma, treatment ratio versus control” value (day 7) of the same compound?
**A.** 0.96

**Q.** What about the “Phosphate (inorganic and organic phosphates), plasma, treatment ratio versus control” value (day 7) of the same compound?
**A.** 0.9*

**Q.** What about the “Pyruvate, plasma, treatment ratio versus control” value (day 7) of the same compound?
**A.** 0.84

**Q.** And the “Spermidine, plasma, treatment ratio versus control” value (day 7)?
**A.** 0.77*

**Q.** And the “TAG (C16:0,C16:1), plasma, treatment ratio versus control” value (“TAG … treatment ratio versus control” for short) (day 7)?
**A.** 0.67*

**Q.** What about the “Uracil, plasma, treatment ratio versus control” value (day 7) of the same compound?
**A.** 0.67*

**Q.** And the “myo-Inositol, plasma, treatment ratio versus control” value (day 7)?
**A.** 0.85*

**Q.** And the “trans-4-Hydroxyproline, plasma, treatment ratio versus control” value (day 7)?
**A.** 0.73*

**Q.** What about the “18-Hydroxy-11-deoxycorticosterone, plasma, treatment ratio versus control” value (day 14) of the same compound?
**A.** 0.59*

**Q.** What about the “Alanine, plasma, treatment ratio versus control” value (day 14) of the same compound?
**A.** 0.84*

**Q.** What about the “Arachidonic acid (C20:cis[5,8,11,14]4), plasma, treatment ratio versus control” value (day 14) of the same compound?
**A.** 0.83*

**Q.** What about the “Coenzyme Q9, plasma, treatment ratio versus control” value (day 14) of the same compound?
**A.** 0.67*

**Q.** And the “Creatinine, plasma, treatment ratio versus control” value (day 14)?
**A.** 1.45*

**Q.** What about the “DAG … treatment ratio versus control” value (day 14) of the same compound?
**A.** 0.74*

**Q.** What about the “Fructose-6-phosphate, plasma, treatment ratio versus control” value (day 14) of the same compound?
**A.** 1.08

**Q.** What about the “Galactose, lipid fraction, plasma, treatment ratio versus control” value (day 14) of the same compound?
**A.** 1

**Q.** What about the “Glucosamine, plasma, treatment ratio versus control” value (day 14) of the same compound?
**A.** 1.15

**Q.** What about the “Glucose, plasma, treatment ratio versus control” value (day 14) of the same compound?
**A.** 0.88*

**Q.** What about the “Glycerol, polar fraction, plasma, treatment ratio versus control” value (day 14) of the same compound?
**A.** 0.84*

**Q.** And the “Heneicosanoic acid (C21:0), plasma, treatment ratio versus control” value (day 14)?
**A.** 0.87*

**Q.** What about the “Lactate, plasma, treatment ratio versus control” value (day 14) of the same compound?
**A.** 0.69*

**Q.** What about the “Linolenic acid … treatment ratio versus control” value (day 14) of the same compound?
**A.** 0.57*

**Q.** And the “Lysine, plasma, treatment ratio versus control” value (day 14)?
**A.** 0.97

**Q.** What about the “Malate, plasma, treatment ratio versus control” value (day 14) of the same compound?
**A.** 0.8*

**Q.** And the “Oleic acid (C18:cis[9]1), plasma, treatment ratio versus control” value (day 14)?
**A.** 0.82*

**Q.** And the “Palmitoleic acid (C16:cis[9]1), plasma, treatment ratio versus control” value (day 14)?
**A.** 0.77*

**Q.** What about the “Phenylalanine, plasma, treatment ratio versus control” value (day 14) of the same compound?
**A.** 0.96*

**Q.** What about the “Phosphate (inorganic and organic phosphates), plasma, treatment ratio versus control” value (day 14) of the same compound?
**A.** 0.89*

**Q.** What about the “Pyruvate, plasma, treatment ratio versus control” value (day 14) of the same compound?
**A.** 0.69*

**Q.** What about the “Spermidine, plasma, treatment ratio versus control” value (day 14) of the same compound?
**A.** 0.69*

**Q.** And the “TAG … treatment ratio versus control” value (day 14)?
**A.** 0.38*

**Q.** What about the “Uracil, plasma, treatment ratio versus control” value (day 14) of the same compound?
**A.** 0.67*

**Q.** And the “myo-Inositol, plasma, treatment ratio versus control” value (day 14)?
**A.** 0.97

**Q.** What about the “trans-4-Hydroxyproline, plasma, treatment ratio versus control” value (day 14) of the same compound?
**A.** 0.75*

**Q.** And the “18-Hydroxy-11-deoxycorticosterone, plasma, treatment ratio versus control” value (day 28)?
**A.** 0.58

**Q.** What about the “Alanine, plasma, treatment ratio versus control” value (day 28) of the same compound?
**A.** 0.92*

**Q.** What about the “Arachidonic acid (C20:cis[5,8,11,14]4), plasma, treatment ratio versus control” value (day 28) of the same compound?
**A.** 0.97

**Q.** What about the “Coenzyme Q9, plasma, treatment ratio versus control” value (day 28) of the same compound?
**A.** 0.73*

**Q.** And the “Creatinine, plasma, treatment ratio versus control” value (day 28)?
**A.** 1.65*

**Q.** What about the “DAG … treatment ratio versus control” value (day 28) of the same compound?
**A.** 0.67

**Q.** And the “Fructose-6-phosphate, plasma, treatment ratio versus control” value (day 28)?
**A.** 0.83*

**Q.** And the “Galactose, lipid fraction, plasma, treatment ratio versus control” value (day 28)?
**A.** 1.15

**Q.** And the “Glucosamine, plasma, treatment ratio versus control” value (day 28)?
**A.** 0.84

**Q.** And the “Glucose, plasma, treatment ratio versus control” value (day 28)?
**A.** 0.87*

**Q.** What about the “Glycerol, polar fraction, plasma, treatment ratio versus control” value (day 28) of the same compound?
**A.** 0.79*

**Q.** What about the “Heneicosanoic acid (C21:0), plasma, treatment ratio versus control” value (day 28) of the same compound?
**A.** 1.08

**Q.** What about the “Lactate, plasma, treatment ratio versus control” value (day 28) of the same compound?
**A.** 0.77*

**Q.** What about the “Linolenic acid … treatment ratio versus control” value (day 28) of the same compound?
**A.** 0.53*

**Q.** What about the “Lysine, plasma, treatment ratio versus control” value (day 28) of the same compound?
**A.** 0.88*

**Q.** What about the “Malate, plasma, treatment ratio versus control” value (day 28) of the same compound?
**A.** 0.69*

**Q.** What about the “Oleic acid (C18:cis[9]1), plasma, treatment ratio versus control” value (day 28) of the same compound?
**A.** 0.8*

**Q.** And the “Palmitoleic acid (C16:cis[9]1), plasma, treatment ratio versus control” value (day 28)?
**A.** 0.88*

**Q.** What about the “Phenylalanine, plasma, treatment ratio versus control” value (day 28) of the same compound?
**A.** 0.93*

**Q.** What about the “Phosphate (inorganic and organic phosphates), plasma, treatment ratio versus control” value (day 28) of the same compound?
**A.** 1.02

**Q.** And the “Pyruvate, plasma, treatment ratio versus control” value (day 28)?
**A.** 0.69*

**Q.** And the “Spermidine, plasma, treatment ratio versus control” value (day 28)?
**A.** 0.79*

**Q.** What about the “TAG … treatment ratio versus control” value (day 28) of the same compound?
**A.** 0.71*

**Q.** What about the “Uracil, plasma, treatment ratio versus control” value (day 28) of the same compound?
**A.** 0.77*

**Q.** And the “myo-Inositol, plasma, treatment ratio versus control” value (day 28)?
**A.** 0.91*

**Q.** And the “trans-4-Hydroxyproline, plasma, treatment ratio versus control” value (day 28)?
**A.** 0.81*

**Q.** How did the “3-Hydroxybutyrate, plasma, treatment ratio versus control” value (day 7) turn out when `C#CC1(O)CCC2C3CCc4cc(O)ccc4C3CCC21C` (stereo not drawn) [17-alpha-Ethynylestradiol, 17-ethynyl-13-methyl-7,8,9,11,12,13,14,15,16,17-decahydro-6H-cyclopenta[a]phenanthrene-3,17-diol] was run?
**A.** 0.71

**Q.** And the “3-O-Methylsphingosine (d18:1), plasma, treatment ratio versus control” value (day 7)?
**A.** 0.06

**Q.** What about the “Campesterol, plasma, treatment ratio versus control” value (day 7) of the same compound?
**A.** 0.08

**Q.** What about the “Cholesterol, plasma, treatment ratio versus control” value (day 7) of the same compound?
**A.** 0.05

**Q.** And the “Coenzyme Q9, plasma, treatment ratio versus control” value (day 7)?
**A.** 0.09*

**Q.** What about the “Coenzyme Q10, plasma, treatment ratio versus control” value (day 7) of the same compound?
**A.** 0.09*

**Q.** What about the “Glutamine, plasma, treatment ratio versus control” value (day 7) of the same compound?
**A.** 0.84

**Q.** What about the “Histidine, plasma, treatment ratio versus control” value (day 7) of the same compound?
**A.** 2.33*

**Q.** What about the “Lysine, plasma, treatment ratio versus control” value (day 7) of the same compound?
**A.** 1.47

**Q.** What about the “Palmitoleic acid (C16:cis[9]1), plasma, treatment ratio versus control” value (day 7) of the same compound?
**A.** 0.2

**Q.** And the “Stearic acid (C18:0), plasma, treatment ratio versus control” value (day 7)?
**A.** 0.18

**Q.** What about the “Threonine, plasma, treatment ratio versus control” value (day 7) of the same compound?
**A.** 1.44*

**Q.** What about the “erythro-Sphingosine, plasma, treatment ratio versus control” value (day 7) of the same compound?
**A.** 0.03

**Q.** What about the “3-Hydroxybutyrate, plasma, treatment ratio versus control” value (day 14) of the same compound?
**A.** 0.23*

**Q.** What about the “3-O-Methylsphingosine (d18:1), plasma, treatment ratio versus control” value (day 14) of the same compound?
**A.** 0.35*

**Q.** And the “Campesterol, plasma, treatment ratio versus control” value (day 14)?
**A.** 0.6*

**Q.** And the “Cholesterol, plasma, treatment ratio versus control” value (day 14)?
**A.** 0.57*

**Q.** What about the “Coenzyme Q9, plasma, treatment ratio versus control” value (day 14) of the same compound?
**A.** 0.86

**Q.** And the “Coenzyme Q10, plasma, treatment ratio versus control” value (day 14)?
**A.** 0.36*

**Q.** And the “Glutamine, plasma, treatment ratio versus control” value (day 14)?
**A.** 0.91

**Q.** What about the “Histidine, plasma, treatment ratio versus control” value (day 14) of the same compound?
**A.** 2.16*

**Q.** And the “Lignoceric acid (C24:0), plasma, treatment ratio versus control” value (day 14)?
**A.** 0.47*

**Q.** And the “Lysine, plasma, treatment ratio versus control” value (day 14)?
**A.** 1.4*

**Q.** And the “Palmitoleic acid (C16:cis[9]1), plasma, treatment ratio versus control” value (day 14)?
**A.** 1.28

**Q.** And the “Stearic acid (C18:0), plasma, treatment ratio versus control” value (day 14)?
**A.** 0.67*

**Q.** What about the “Threonine, plasma, treatment ratio versus control” value (day 14) of the same compound?
**A.** 1.85*

**Q.** And the “erythro-Sphingosine, plasma, treatment ratio versus control” value (day 14)?
**A.** 0.45*
